Measurements from patent publication US9708314B2, “Heterocyclic amide compound” (NISSAN CHEMICAL INDUSTRIES, LTD., priority 2013, dated 2017).

Tests used:
Type in all cases: in vivo
[1] = test system: Echinochloa oryzacola Vasing.; assay: Test Example 1: herbicidal activity, application before weed generation in submerged conditions; details: Application herbicide amount 320 g/ha; Seventeenth Table
Procedure, shortened: (§1)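 Rating, on a six-step scale from almost no effect (0) to almost completely withered (5), was made three weeks after pre-emergence treatment. Treatment was surface application to flooded pots at g/ha rates, with plants kept at 25° C. to 30° C.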

Monochoria vaginalis = assay: as above; details: Application herbicide amount 320 g/ha; Seventeenth Table
Procedure, shortened: as §1

Scirpus juncoides = assay: as above; details: Application herbicide amount 320 g/ha; Seventeenth Table
Procedure, shortened: as §1

Abutilon theophrasti = assay: Test Example 4: herbicidal effect by application to foliage (diluvial soil, plastic box); details: Application herbicide amount 320 g/ha; foliage application
Procedure, shortened: (§2)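 Emulsion-formulated compound, diluted to a predetermined g/ha dose, applied by small sprayer to leaves and stems of 14-day-old seedlings grown in sterilized diluvial soil. Effect rated on 0–5 herbicidal-ratio scale three weeks on.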

Alopecurus myosuroides = assay: as above; details: Application herbicide amount 320 g/ha; foliage application
Procedure, shortened: as §2

Amaranthus retroflexus = assay: as above; details: Application herbicide amount 320 g/ha; foliage application
Procedure, shortened: as §2

Apera spica-venti. = assay: as above; details: Application herbicide amount 320 g/ha; foliage application
Procedure, shortened: as §2

Avena fatua = assay: as above; details: Application herbicide amount 320 g/ha; foliage application
Procedure, shortened: as §2

Chenopodium album = assay: as above; details: Application herbicide amount 320 g/ha; foliage application
Procedure, shortened: as §2

Digitaria ciliaris = assay: as above; details: Application herbicide amount 320 g/ha; foliage application
Procedure, shortened: as §2

[2] = test system: Echinochloa crus-galli var. crus-galli; assay: as above; details: Application herbicide amount 320 g/ha; foliage application
Procedure, shortened: as §2

Galium spurium = assay: as above; details: Application herbicide amount 320 g/ha; foliage application
Procedure, shortened: as §2

Lolium multiflorum Lam. = assay: as above; details: Application herbicide amount 320 g/ha; foliage application
Procedure, shortened: as §2

Setaria viridis = assay: as above; details: Application herbicide amount 320 g/ha; foliage application
Procedure, shortened: as §2

Stellaria media = assay: as above; details: Application herbicide amount 320 g/ha; foliage application
Procedure, shortened: as §2

Veronica persica = assay: as above; details: Application herbicide amount 320 g/ha; foliage application
Procedure, shortened: as §2

[3] = test system: Beta vulgaris ssp. vulgaris; assay: Test Example 4: effect on crop by application to foliage (diluvial soil, plastic box); details: Application herbicide amount 320 g/ha; foliage application
Procedure, shortened: as §2

Brassica campestris L. = assay: as above; details: Application herbicide amount 320 g/ha; foliage application
Procedure, shortened: as §2

Glycine max = assay: as above; details: Application herbicide amount 320 g/ha; foliage application
Procedure, shortened: as §2

Triticum aestivum = assay: as above; details: Application herbicide amount 320 g/ha; foliage application
Procedure, shortened: as §2

Zea mays = assay: as above; details: Application herbicide amount 320 g/ha; foliage application
Procedure, shortened: as §2

[4] = test system: directly sowed Oryza sativa; assay: as above; details: Application herbicide amount 320 g/ha; foliage application
Procedure, shortened: as §2

SMILES: CCOc1nnc2c(C(=O)Nc3nnco3)ccc(C(F)(F)F)n12 [1-112]
- A: Echinochloa oryzicola Vasing. (herbicidal effect grade) [1]: 3 (Herbicidal ratio of 40% or more and less than 70%)
- C: Monochoria vaginalis (herbicidal effect grade) (Monochoria vaginalis): 2 (Herbicidal ratio of 20% or more and less than 40%)
- B: Scirpus juncoides (herbicidal effect grade) (Scirpus juncoides): 3 (Herbicidal ratio of 40% or more and less than 70%)
- M (Abutilon theophrasti) herbicidal effect grade (Abutilon theophrasti): 3 (Herbicidal ratio of 40% or more and less than 70%)
- J (Alopecurus myosuroides) herbicidal effect grade (Alopecurus myosuroides): 0 (Herbicidal ratio of 5% or less (almost no effect))
- N (Amaranthus retroflexus) herbicidal effect grade (Amaranthus retroflexus): 4 (Herbicidal ratio of 70% or more and less than 90%)
- L (Apera spica-venti.) herbicidal effect grade (Apera spica-venti.): 0 (Herbicidal ratio of 5% or less (almost no effect))
- I (Avena fatua) herbicidal effect grade (Avena fatua): 0 (Herbicidal ratio of 5% or less (almost no effect))
- O (Chenopodium album) herbicidal effect grade (Chenopodium album): 5 (Herbicidal ratio of 90% or more (almost completely withered))
- F (Digitaria ciliaris) herbicidal effect grade (Digitaria ciliaris): 1 (Herbicidal ratio of 5% or more and less than 20%)
- H (Echinochloa crus-galli var. crus-galli) herbicidal effect grade [2]: 2 (Herbicidal ratio of 20% or more and less than 40%)
- Q (Galium spurium) herbicidal effect grade (Galium spurium): 0 (Herbicidal ratio of 5% or less (almost no effect))
- K (Lolium multiflorum Lam.) herbicidal effect grade (Lolium multiflorum Lam.): 0 (Herbicidal ratio of 5% or less (almost no effect))
- G (Setaria viridis) herbicidal effect grade (Setaria viridis): 0 (Herbicidal ratio of 5% or less (almost no effect))
- P (Stellaria media) herbicidal effect grade (Stellaria media): 4 (Herbicidal ratio of 70% or more and less than 90%)
- R (Veronica persica) herbicidal effect grade (Veronica persica): 5 (Herbicidal ratio of 90% or more (almost completely withered))
- f (Beta vulgaris ssp. vulgaris) effect on crop grade [3]: 5 (Herbicidal ratio of 90% or more (almost completely withered))
- g (Brassica campestris L.) effect on crop grade (Brassica campestris L.): 3 (Herbicidal ratio of 40% or more and less than 70%)
- d (Glycine max) effect on crop grade (Glycine max): 3 (Herbicidal ratio of 40% or more and less than 70%)
- e (Triticum aestivum) effect on crop grade (Triticum aestivum): 0 (Herbicidal ratio of 5% or less (almost no effect))
- c (Zea mays) effect on crop grade (Zea mays): 0 (Herbicidal ratio of 5% or less (almost no effect))
- b (directly sowed Oryza sativa) effect on crop grade [4]: 0 (Herbicidal ratio of 5% or less (almost no effect))

SMILES: Cc1nnc(NC(=O)c2ccc(C(F)(F)F)n3c(SCc4ccccc4)nnc23)o1 [1-113]
- A: Echinochloa oryzicola Vasing. (herbicidal effect grade) [1]: 4 (Herbicidal ratio of 70% or more and less than 90%)
- C: Monochoria vaginalis (herbicidal effect grade) (Monochoria vaginalis): 2 (Herbicidal ratio of 20% or more and less than 40%)
- B: Scirpus juncoides (herbicidal effect grade) (Scirpus juncoides): 3 (Herbicidal ratio of 40% or more and less than 70%)
- M (Abutilon theophrasti) herbicidal effect grade (Abutilon theophrasti): 1 (Herbicidal ratio of 5% or more and less than 20%)
- J (Alopecurus myosuroides) herbicidal effect grade (Alopecurus myosuroides): 0 (Herbicidal ratio of 5% or less (almost no effect))
- N (Amaranthus retroflexus) herbicidal effect grade (Amaranthus retroflexus): 3 (Herbicidal ratio of 40% or more and less than 70%)
- L (Apera spica-venti.) herbicidal effect grade (Apera spica-venti.): 0 (Herbicidal ratio of 5% or less (almost no effect))
- I (Avena fatua) herbicidal effect grade (Avena fatua): 0 (Herbicidal ratio of 5% or less (almost no effect))
- O (Chenopodium album) herbicidal effect grade (Chenopodium album): 5 (Herbicidal ratio of 90% or more (almost completely withered))
- F (Digitaria ciliaris) herbicidal effect grade (Digitaria ciliaris): 1 (Herbicidal ratio of 5% or more and less than 20%)
- H (Echinochloa crus-galli var. crus-galli) herbicidal effect grade [2]: 2 (Herbicidal ratio of 20% or more and less than 40%)
- Q (Galium spurium) herbicidal effect grade (Galium spurium): 0 (Herbicidal ratio of 5% or less (almost no effect))
- K (Lolium multiflorum Lam.) herbicidal effect grade (Lolium multiflorum Lam.): 0 (Herbicidal ratio of 5% or less (almost no effect))
- G (Setaria viridis) herbicidal effect grade (Setaria viridis): 0 (Herbicidal ratio of 5% or less (almost no effect))
- P (Stellaria media) herbicidal effect grade (Stellaria media): 4 (Herbicidal ratio of 70% or more and less than 90%)
- R (Veronica persica) herbicidal effect grade (Veronica persica): 3 (Herbicidal ratio of 40% or more and less than 70%)
- f (Beta vulgaris ssp. vulgaris) effect on crop grade [3]: 3 (Herbicidal ratio of 40% or more and less than 70%)
- g (Brassica campestris L.) effect on crop grade (Brassica campestris L.): 0 (Herbicidal ratio of 5% or less (almost no effect))
- d (Glycine max) effect on crop grade (Glycine max): 0 (Herbicidal ratio of 5% or less (almost no effect))
- e (Triticum aestivum) effect on crop grade (Triticum aestivum): 0 (Herbicidal ratio of 5% or less (almost no effect))
- c (Zea mays) effect on crop grade (Zea mays): 0 (Herbicidal ratio of 5% or less (almost no effect))
- b (directly sowed Oryza sativa) effect on crop grade [4]: 0 (Herbicidal ratio of 5% or less (almost no effect))

SMILES: COc1ccc(CSc2nnc3c(C(=O)Nc4nnc(C)o4)ccc(C(F)(F)F)n23)cc1 [1-114]
- A: Echinochloa oryzicola Vasing. (herbicidal effect grade) [1]: 3 (Herbicidal ratio of 40% or more and less than 70%)
- C: Monochoria vaginalis (herbicidal effect grade) (Monochoria vaginalis): 0 (Herbicidal ratio of 5% or less (almost no effect))
- B: Scirpus juncoides (herbicidal effect grade) (Scirpus juncoides): 2 (Herbicidal ratio of 20% or more and less than 40%)
- M (Abutilon theophrasti) herbicidal effect grade (Abutilon theophrasti): 2 (Herbicidal ratio of 20% or more and less than 40%)
- J (Alopecurus myosuroides) herbicidal effect grade (Alopecurus myosuroides): 0 (Herbicidal ratio of 5% or less (almost no effect))
- N (Amaranthus retroflexus) herbicidal effect grade (Amaranthus retroflexus): 3 (Herbicidal ratio of 40% or more and less than 70%)
- L (Apera spica-venti.) herbicidal effect grade (Apera spica-venti.): 0 (Herbicidal ratio of 5% or less (almost no effect))
- I (Avena fatua) herbicidal effect grade (Avena fatua): 0 (Herbicidal ratio of 5% or less (almost no effect))
- O (Chenopodium album) herbicidal effect grade (Chenopodium album): 5 (Herbicidal ratio of 90% or more (almost completely withered))
- F (Digitaria ciliaris) herbicidal effect grade (Digitaria ciliaris): 1 (Herbicidal ratio of 5% or more and less than 20%)
- H (Echinochloa crus-galli var. crus-galli) herbicidal effect grade [2]: 3 (Herbicidal ratio of 40% or more and less than 70%)
- Q (Galium spurium) herbicidal effect grade (Galium spurium): 1 (Herbicidal ratio of 5% or more and less than 20%)
- K (Lolium multiflorum Lam.) herbicidal effect grade (Lolium multiflorum Lam.): 0 (Herbicidal ratio of 5% or less (almost no effect))
- G (Setaria viridis) herbicidal effect grade (Setaria viridis): 0 (Herbicidal ratio of 5% or less (almost no effect))
- P (Stellaria media) herbicidal effect grade (Stellaria media): 4 (Herbicidal ratio of 70% or more and less than 90%)
- R (Veronica persica) herbicidal effect grade (Veronica persica): 3 (Herbicidal ratio of 40% or more and less than 70%)
- f (Beta vulgaris ssp. vulgaris) effect on crop grade [3]: 4 (Herbicidal ratio of 70% or more and less than 90%)
- g (Brassica campestris L.) effect on crop grade (Brassica campestris L.): 0 (Herbicidal ratio of 5% or less (almost no effect))
- d (Glycine max) effect on crop grade (Glycine max): 0 (Herbicidal ratio of 5% or less (almost no effect))
- e (Triticum aestivum) effect on crop grade (Triticum aestivum): 0 (Herbicidal ratio of 5% or less (almost no effect))
- c (Zea mays) effect on crop grade (Zea mays): 0 (Herbicidal ratio of 5% or less (almost no effect))
- b (directly sowed Oryza sativa) effect on crop grade [4]: 0 (Herbicidal ratio of 5% or less (almost no effect))
